{"source": "patent US20060287345A1", "about": "“Substituted 4-phenyl-4-[1h-imidazol-2-yl]-piperidine derivatives as selective non-peptide delta opiod agonists with antidepressant and anxiolytic activity” (priority 2003, published 2006)", "key": {"C57BL/6 mice": {"system": "C57BL/6 mice", "test": "Mouse forced swim test", "format": "in vivo", "settings": "s.c., immobility, treatment 30 min prior to test", "method": "(§1) Antidepressant- and anxiolytic like properties of the compounds were examined in mouse tail suspension test (TS), mouse forced swim test (FS) and mouse neonatal ultrasonic vocalization test (USV).\nThis test has been validated as test for antidepressant-like activity (Borsini and Meli, Psychopharmacology 1988, 94, 147).\nAdult male C57BL/6 mice (body weight 22-24 g Charles River, Sulzfeld, Germany) were housed individually in IVC racks and maintained under a 12:12 h light/dark cycle (lights on at 6:00 b), with food and water ad libitum.\nA clear glass beaker (10 cm in diameter, 25 cm high) was filled to a depth of 10 cm with water (25° C.). Mice were placed into the water for 6 min. Immobility during the first and the last 3 min were scored automatically using the Videotrack video tracking system (Viewpoint, France), which allows detection of individual pixel movements. Four animals were tested in parallel. Treatment was given 30 min prior to test (s.c., 10 ml/kg). The water was replaced after each animal.\n(§2) Data were analyzed using the non-parametric, unadjusted Wilcoxon-Mann-Whitney rank sum test. Each dose was compared with vehicle."}, "neonatal C57BL/6 mice": {"system": "neonatal C57BL/6 mice", "test": "Mouse neonatal ultrasonic vocalization test", "format": "in vivo", "settings": "s.c., postnatal day 3, 30 min after injection", "source_text": "as §1\nAnxiolytic compounds typically decrease the vocalizations in rat pups separated from their mother (Olivier et al., Eur. J. Pharmacol. 1998, 358, 117) More recently, this test has also been established in mice (Dirks et al., Pharmacol. Biochem. Behav. 2002, 72, 993).\nSeventeen days pregnant C57BL/6 mice were obtained from Charles River (Sulzfeld, Germany). They were housed and maintained at a constant temperature of 22° C., under a 12:12 h reversed light/dark cycle (lights off at 6:00 h), with food and water ad libitum. Two times per day, cages were checked for newborn litters. Litter size was 5-8 pups/litter.\nUltrasonic vocalizatiors (USVs) were recorded in a sound attenuating, ventilated chamber at room temperature, detected at 60 kHz (range 50-70 kHz) by a bat recorder in combination with the UltraVox system (Noldus, The Netherlands). No filter was used in order to be able to record pup clicks.\nDistress calls of neonatal mice were measured in neonatal C57BL/6 mice at postnatal day 3 during the early dark phase (between 8:00 and 12:00). Pups were weighed (body weight 2-3 g), followed by subcutaneous injection (10 ml/kg), and placed back into the nest. After 30 min, they were separated from the mother and placed into a beaker underneath the bat detector. The number of calls and the duration of calls were recorded over a period of 5 min.\nas §2"}, "NMRI mice": {"system": "NMRI mice", "test": "Mouse tail suspension test", "format": "in vivo", "settings": "s.c., immobility, 30 min after administration"}, "[1]": {"target": "T1, cloned human δ opioid receptor (Homo sapiens, UniProt P41143)", "T1 construct": "expressed in transfected cells; host or cells: C6 glioma cells (permanently transfected)", "T1 sequence (P41143 whole entry)": "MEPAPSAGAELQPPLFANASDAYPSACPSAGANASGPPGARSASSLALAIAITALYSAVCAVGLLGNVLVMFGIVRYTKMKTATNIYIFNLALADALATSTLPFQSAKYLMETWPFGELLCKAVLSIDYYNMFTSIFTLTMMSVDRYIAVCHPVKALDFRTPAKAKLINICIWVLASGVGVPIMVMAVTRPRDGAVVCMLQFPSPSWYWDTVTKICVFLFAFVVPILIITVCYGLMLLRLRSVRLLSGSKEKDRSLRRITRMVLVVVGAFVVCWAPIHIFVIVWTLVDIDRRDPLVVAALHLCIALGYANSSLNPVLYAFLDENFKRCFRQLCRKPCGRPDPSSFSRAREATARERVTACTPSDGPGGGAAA", "test": "Radioligand binding, competitive inhibition of [3H]DPDPE"}, "[2]": {"target": "cloned human μ opioid receptor (Homo sapiens, UniProt P35372)", "sequence (P35372 whole entry)": "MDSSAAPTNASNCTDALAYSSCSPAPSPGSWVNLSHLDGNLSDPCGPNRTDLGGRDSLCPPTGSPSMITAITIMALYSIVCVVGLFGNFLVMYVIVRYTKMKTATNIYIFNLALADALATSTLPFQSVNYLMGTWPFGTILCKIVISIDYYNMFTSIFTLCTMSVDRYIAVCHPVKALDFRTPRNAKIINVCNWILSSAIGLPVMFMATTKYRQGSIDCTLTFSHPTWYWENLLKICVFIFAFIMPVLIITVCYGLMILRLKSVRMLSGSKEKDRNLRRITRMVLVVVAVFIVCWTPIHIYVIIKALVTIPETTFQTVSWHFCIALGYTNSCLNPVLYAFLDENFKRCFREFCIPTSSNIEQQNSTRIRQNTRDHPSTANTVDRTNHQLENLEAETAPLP", "test": "Radioligand binding, competition with [3H]DAMGO", "settings": "Table 8, CHO membranes, read-out: Agonist receptor binding (pIC50) mu (converted)"}, "δ opioid receptor [3]": {"target": "T2, δ opioid receptor (Homo sapiens, UniProt P41143)", "T2 construct": "expressed in transfected cells; host or cells: C6 glioma cells (permanently transfected)", "T2 sequence (P41143 whole entry)": "as the sequence (P41143 whole entry) above", "test": "[35S]GTPγS binding, delta agonism", "format": "biochemical", "protocol": "Second messenger signaling was measured on membrane preparations via stimulation of [^35S]GTPγS binding In this functional assay, agonistic and antagonistic properties of the compounds were investigated.\nThe assay mixtures contained 10 μg of membrane protein. An additional 10 μg/ml saponire was added to the diluted membranes as a detergent to maximize the [^35S]GTPγS penetration through the membranes.\nFor testing agonistic activity, 175 μl of diluted membranes was pre-incubated in the buffer described above together with 25 μl of buffer and 25 μl of varying concentrations of the compound in a total volume of 225 μl. For antagonistic activities, the 25 μl of the buffer addition was replaced with the reference agonist for stimulating the basal levels. […]\nThe amount of bound radioactivity on the filter unit was determined after filter drying and scintillant addition (Nicroscint-O; Packard) by liquid scintillation counting.\nBasal [^35S]GTPγS binding was measured in absence of compounds. Stimulation by agonist was calculated as the percentage increase above basal levels. The sigmoid agonist concentration response curves for increases in [^35S]GTPγS binding and antagonist inhibition curves for inhibition of the reference agonist-stimulated [^35S]GTPγS binding were analyzed by non-linear regression using the GraphPad Prism program. […]"}, "δ opioid receptor [4]": {"target": "T2, δ opioid receptor", "test": "Signal transport binding, delta antagonism", "format": "biochemical"}, "[5]": {"settings": "Table 7, delta opioid receptor, read-out: pIC50 values for the delta opioid receptor agonist test (converted)"}}, "note": "pIC50: −log10 of the molar value. Like-named read-outs stand apart in the source and are kept apart here.", "data": [{"smiles": "CCOC(=O)N1CCC(c2ccccc2)(c2nccn2Cc2ccccc2)CC1", "note": "[Compound 1, ethyl 4-phenyl-4-[1-(phenylmethyl)-1H-imidazol-2-yl]-1-piperidinecarboxylate]", "values": [{"measurement": "Forced swim (LAD) (Lowest Active Dose tested)", "setting": "C57BL/6 mice", "result": 30, "unit": "mg/kg s.c."}, {"measurement": "Ultrasonic vocalization (LAD) (Lowest Active Dose tested)", "setting": "neonatal C57BL/6 mice", "result": 10, "unit": "mg/kg s.c."}, {"measurement": "Tail suspension LAD (Lowest Active Dose tested)", "setting": "NMRI mice", "result": 30, "unit": "mg/kg s.c."}]}, {"smiles": "O=C(c1ccccc1)N1CCC(c2ccccc2)(c2nccn2Cc2ccccc2)CC1", "note": "[Compound 2]", "values": [{"measurement": "Ultrasonic vocalization (LAD) (Lowest Active Dose tested)", "setting": "neonatal C57BL/6 mice", "result": 1, "unit": "mg/kg s.c."}, {"measurement": "Tail suspension LAD (Lowest Active Dose tested)", "setting": "NMRI mice", "result": 10, "unit": "mg/kg s.c."}]}, {"smiles": "CCOC(=O)N1CCC(c2ccccc2)(c2nccn2Cc2ccc(C(=O)OC)cc2)CC1", "note": "[Compound 3]", "values": [{"measurement": "melting point", "result": 149.1, "unit": "°C"}]}, {"smiles": "CCN/C(=N/C#N)N1CCC(c2ccccc2)(c2nccn2Cc2ccccc2)CC1", "note": "[Compound 4]", "values": [{"measurement": "pIC50", "setting": "[1]", "result": 7.30}, {"measurement": "melting point", "result": 84.2, "unit": "°C"}]}, {"smiles": "COC(=O)c1ccccc1NC(=O)N1CCC(c2ccccc2)(c2nccn2Cc2ccccc2)CC1", "note": "[Compound 7]", "values": [{"measurement": "pIC50", "setting": "[1]", "result": 7.70}]}, {"smiles": "CCOC(=O)N1CCC(c2ccccc2)(c2nccn2Cc2ccc(C(=O)O)cc2)CC1", "note": "[Compound 8]", "values": [{"measurement": "melting point", "result": 251.6, "unit": "°C"}]}, {"smiles": "O=C(Nc1ccccc1CO)N1CCC(c2ccccc2)(c2nccn2Cc2ccccc2)CC1", "note": "[Compound 10]", "values": [{"measurement": "IC50", "setting": "[1]; [5]", "result": 63.1, "unit": "nM"}]}, {"smiles": "O=C(O)c1ccccc1NC(=O)N1CCC(c2ccccc2)(c2nccn2Cc2ccccc2)CC1", "note": "[Compound 11]", "values": [{"measurement": "IC50", "setting": "[1]; [5]", "result": 15.8, "unit": "nM"}]}, {"smiles": "CCOC(=O)c1ccc(C(C)n2ccnc2C2(c3ccccc3)CCN(C(=O)OCC)CC2)cc1", "note": "(centres unmarked) [Compound 19]", "values": [{"measurement": "IC50", "setting": "[2]; [3H]DAMGO 1 nM", "result": "> 1000", "unit": "nM"}, {"measurement": "IC50", "setting": "δ opioid receptor [3]; Table 8, [35S]GTPγS binding, membranes, read-out: Signal transport binding (pIC50) delta agonism GTPγS (converted)", "result": 316, "unit": "nM"}, {"measurement": "IC50", "setting": "δ opioid receptor [4]; Table 8, against reference agonist DPDPE, read-out: Signal transport binding (pIC50) delta antag. (converted)", "result": "> 10000", "unit": "nM"}, {"measurement": "pIC50", "setting": "[1]; Agonist receptor binding (pIC50) delta, Table 8, [3H]DPDPE 2 nM, C6 glioma cell membranes", "result": 8.20}]}, {"smiles": "CCOC(=O)N1CCC(c2ccccc2)(c2nccn2C(C)c2ccccc2)CC1", "note": "(centres unmarked) [Compound 20]", "values": [{"measurement": "Ultrasonic vocalization (LAD) (Lowest Active Dose tested)", "setting": "neonatal C57BL/6 mice", "result": 30, "unit": "mg/kg s.c."}, {"measurement": "Tail suspension LAD (Lowest Active Dose tested)", "setting": "NMRI mice", "result": 30, "unit": "mg/kg s.c."}]}, {"smiles": "CCOC(=O)N1CCC(c2ccccc2)(c2nccn2Cc2ccc3ccccc3c2)CC1", "note": "[Compound 22]", "values": [{"measurement": "IC50", "setting": "[1]; [5]", "result": 50.1, "unit": "nM"}]}, {"smiles": "O=C(OC1CCCCC1)N1CCC(c2ccccc2)(c2nccn2Cc2ccccc2)CC1", "note": "[Compound 28]", "values": [{"measurement": "pIC50", "setting": "[1]", "result": 7.80}]}, {"smiles": "O=C(C1CC1)N1CCC(c2ccccc2)(c2nccn2Cc2ccccc2)CC1", "note": "[Compound 36]", "values": [{"measurement": "pIC50", "setting": "[1]", "result": 7.30}]}, {"smiles": "O=C(c1cc(C(F)(F)F)cc(C(F)(F)F)c1)N1CCC(c2ccccc2)(c2nccn2Cc2ccccc2)CC1", "note": "[Compound 42]", "values": [{"measurement": "IC50", "setting": "[1]; [5]", "result": 63.1, "unit": "nM"}]}, {"smiles": "CCOC(=O)CNC(=O)N1CCC(c2ccccc2)(c2nccn2Cc2ccccc2)CC1", "note": "[Compound 48]", "values": [{"measurement": "pIC50", "setting": "[1]", "result": 7.10}]}, {"smiles": "CCCCNC(=O)N1CCC(c2ccccc2)(c2nccn2Cc2ccccc2)CC1", "note": "[Compound 50]", "values": [{"measurement": "pIC50", "setting": "[1]", "result": 7.60}]}, {"smiles": "O=C(NC1CCCCC1)N1CCC(c2ccccc2)(c2nccn2Cc2ccccc2)CC1", "note": "[Compound 51]", "values": [{"measurement": "pIC50", "setting": "[1]", "result": 7.30}]}, {"smiles": "COC(=O)c1ccc(Cn2ccnc2C2(c3ccccc3)CCN(C(=O)Nc3ccccc3)CC2)cc1", "note": "[Compound 52]", "values": [{"measurement": "IC50", "setting": "[1]; [5]", "result": 20, "unit": "nM"}]}, {"smiles": "O=C(Nc1ccccc1Cl)N1CCC(c2ccccc2)(c2nccn2Cc2ccccc2)CC1", "note": "[Compound 65]", "values": [{"measurement": "IC50", "setting": "[1]; [5]", "result": 31.6, "unit": "nM"}]}, {"smiles": "O=C(Nc1ccccc1Br)N1CCC(c2ccccc2)(c2nccn2Cc2ccccc2)CC1", "note": "[Compound 66]", "values": [{"measurement": "pIC50", "setting": "[1]", "result": 7.50}]}, {"smiles": "CCOc1ccccc1NC(=O)N1CCC(c2ccccc2)(c2nccn2Cc2ccccc2)CC1", "note": "[Compound 70]", "values": [{"measurement": "pIC50", "setting": "[1]", "result": 7.40}]}, {"smiles": "O=C(Nc1ccc([N+](=O)[O-])cc1)N1CCC(c2ccccc2)(c2nccn2Cc2ccccc2)CC1", "note": "[Compound 71]", "values": [{"measurement": "pIC50", "setting": "[1]", "result": 7.30}]}, {"smiles": "O=C(Nc1ccccc1Oc1ccccc1)N1CCC(c2ccccc2)(c2nccn2Cc2ccccc2)CC1", "note": "[Compound 75]", "values": [{"measurement": "pIC50", "setting": "[1]", "result": 7.40}]}, {"smiles": "CSc1ccccc1NC(=O)N1CCC(c2ccccc2)(c2nccn2Cc2ccccc2)CC1", "note": "[Compound 76]", "values": [{"measurement": "pIC50", "setting": "[1]", "result": 7.40}]}, {"smiles": "COc1ccc(Cl)cc1NC(=O)N1CCC(c2ccccc2)(c2nccn2Cc2ccccc2)CC1", "note": "[Compound 78]", "values": [{"measurement": "IC50", "setting": "[1]; [5]", "result": 12.6, "unit": "nM"}]}, {"smiles": "O=C(NCc1ccccc1)N1CCC(c2ccccc2)(c2nccn2Cc2ccccc2)CC1", "note": "[Compound 80]", "values": [{"measurement": "pIC50", "setting": "[1]", "result": 7.10}]}, {"smiles": "O=C(Nc1ccc2ccccc2c1)N1CCC(c2ccccc2)(c2nccn2Cc2ccccc2)CC1", "note": "[Compound 81]", "values": [{"measurement": "pIC50", "setting": "[1]", "result": 7.20}]}, {"smiles": "O=C(c1csc(-c2cccnc2)n1)N1CCC(c2ccccc2)(c2nccn2Cc2ccccc2)CC1", "note": "[Compound 84]", "values": [{"measurement": "IC50", "setting": "[1]; [5]", "result": 31.6, "unit": "nM"}]}, {"smiles": "O=C(Nc1ccccn1)N1CCC(c2ccccc2)(c2nccn2Cc2ccccc2)CC1", "note": "[Compound 87]", "values": [{"measurement": "pIC50", "setting": "[1]", "result": 7.30}]}, {"smiles": "O=S(=O)(Nc1ccccc1)N1CCC(c2ccccc2)(c2nccn2Cc2ccccc2)CC1", "note": "[Compound 98]", "values": [{"measurement": "IC50", "setting": "[2]; [[…] 1 nM", "result": 2510, "unit": "nM"}, {"measurement": "pIC50", "setting": "δ opioid receptor [3]", "result": 6.10}, {"measurement": "pIC50", "setting": "δ opioid receptor [4]", "result": "< 5.00"}, {"measurement": "pIC50", "setting": "[1]", "result": 8.20}]}, {"smiles": "CCN(CC)C(=O)c1ccc(Cn2ccnc2C2(c3ccccc3)CCN(c3nc4ccccc4o3)CC2)cc1", "note": "[Compound 99]", "values": [{"measurement": "pIC50", "setting": "[1]", "result": 7.30}]}, {"smiles": "CC(c1ccccc1)n1ccnc1C1(c2ccccc2)CCN(c2nc3ccccc3o2)CC1", "note": "(centres unmarked) [Compound 101]", "values": [{"measurement": "pIC50", "setting": "[1]", "result": 7.80}]}, {"smiles": "COC(=O)c1ccc(Cn2ccnc2C2(c3ccccc3)CCN(c3nc4ccccc4s3)CC2)cc1", "note": "[Compound 102]", "values": [{"measurement": "IC50", "setting": "[2]; [3H]DAMGO 1 nM", "result": "> 1000", "unit": "nM"}, {"measurement": "IC50", "setting": "[1]; Table 8, [3H]DPDPE 2 nM, C6 glioma cell membranes, read-out: Agonist receptor binding (pIC50) delta (converted)", "result": 3.16, "unit": "nM"}]}, {"smiles": "c1ccc(Cn2ccnc2C2(c3ccccc3)CCN(c3ncccn3)CC2)cc1", "note": "[Compound 103]", "values": [{"measurement": "pIC50", "setting": "[1]", "result": 7.70}]}, {"smiles": "c1ccc(Cn2ccnc2C2(c3ccccc3)CCN(c3nccs3)CC2)cc1", "note": "[Compound 105]", "values": [{"measurement": "pIC50", "setting": "[1]", "result": 7.90}]}]}
